The structures appear in SMILES notation.

The series can be described thus: in vitro. As to conditions: human, hela cells, % viability.
As a reminder, the viability is a read-out of living cells in per cent, often relative to untreated cells. As to `O=C(Cc1ccsc1)NCCn1nc(-c2cccs2)ccc1=O` [CBK283842], the viability at 28.5 h, 10 µM worked out at 96.5%.
With `CCn1c(=O)n(CC(=O)N2CC(C)CC(C)C2)c2cccnc21` (stereo not drawn) [CBK283845], the viability at 28.5 h, 10 µM stood at 95.3%.
In the case of `OC1(C2CNc3ccccc3C2)CCNCC1` (stereo not drawn) [CBK283847], the viability at 28.5 h, 10 µM was found to be 110%.
Next, `Cc1nn(Cc2cccnc2)c(=O)n2cccc12` [CBK283848]: 105%.
On to `CC(C)N(C(=O)N1CCC(c2cccnc2)CC1)C(C)C` [CBK283850], for which the viability at 28.5 h, 10 µM is 97.6%.
Take `CO[C@H]1CC[C@H](C(=O)NC(c2ccccc2)c2nccn2C)CC1` (stereo partly drawn) [CBK283852]: the viability at 28.5 h, 10 µM was 93.8%.
As to `CC(C)n1c(=O)n(C(=O)c2ccco2)c2cccnc21` [CBK283856], the viability at 28.5 h, 10 µM came to 102%.
For `CN1CC=C(/C=C/C2=Cc3ccccc3OC2)CC1` [CBK283857], the viability at 28.5 h, 10 µM is 89.1%.
As to `Cc1cc(/C=C/C2=CCN(C)CC2)c(C)n1C1CC1` [CBK283858], the viability at 28.5 h, 10 µM turned out to be 85.9%.
As to `COc1ccc(/C=C/C2=CCN(C)CC2)cc1Cn1cccn1` [CBK283859], the viability at 28.5 h, 10 µM amounted to 90.8%.
Next, `CC(C(=O)NCCn1nc(-c2ccco2)ccc1=O)c1ccccc1` (stereo not drawn) [CBK283861]: 93.6%.
As for `CC(C)C(=O)NCCn1nc(-c2ccco2)ccc1=O` [CBK283863], the viability at 28.5 h, 10 µM turned out to be 97%.
Regarding `O=C(CN1C(=O)N2CCN=C2c2ccccc21)N1CCCCC1` [CBK283865], the viability at 28.5 h, 10 µM stood at 91.1%.
In the case of `O=C(O)Cc1cc2c(n1Cc1ccc(F)cc1)CCCC2=O` [CBK283866], the viability at 28.5 h, 10 µM is 93.8%.
Then `O=c1n(Cc2ccccn2)c2cccnc2n1Cc1cccs1` [CBK283867], with 90.2%.
On to `CCn1cc(C(=O)N2CCCCC2c2nc3cc(C)ccc3[nH]2)cn1` (stereo not drawn) [CBK283869], for which the viability at 28.5 h, 10 µM came out at 84.6%.
`Cc1ccc2c(c1)cc(C)c1nn(CC(=O)N3CCCCC3)c(=O)n12` [CBK283870]: the viability at 28.5 h, 10 µM turned out to be 81.6%.
Consider `Cc1ccc2c(c1)cc(C)c1nn(CC(=O)NC3CC3)c(=O)n12` [CBK283873], for which the viability at 28.5 h, 10 µM is 99.2%.
With `Cc1cc(C)c2c(c1)cc(C)c1nn(CC(=O)N3CCCC3)c(=O)n12` [CBK283876], the viability at 28.5 h, 10 µM was 85.5%.
On to `Cc1cc2ccccc2n2c(=O)n(CC(=O)N3CCCCC3)nc12` [CBK283878], for which the viability at 28.5 h, 10 µM was 85.8%.
As for `CCN(CC)C(=O)Cn1nc2c(C)cc3ccccc3n2c1=O` [CBK283879], the viability at 28.5 h, 10 µM came to 84.1%.
Next, `Cc1cc2ccccc2n2c(=O)n(CC(=O)N3CCC(C)CC3)nc12` [CBK283881]: 92.7%.
`Cc1cc2ccccc2n2c(=O)n(CC(=O)N3CCCCC3C)nc12` (stereo not drawn) [CBK283882]: the viability at 28.5 h, 10 µM is 87.1%.
Regarding `Cc1cc2ccccc2n2c(=O)n(CC(=O)N3CCCCCC3)nc12` [CBK283883], the viability at 28.5 h, 10 µM turned out to be 82.3%.
With `Cc1cc2ccccc2n2c(=O)n(CC(=O)N(C(C)C)C(C)C)nc12` [CBK283885], the viability at 28.5 h, 10 µM stood at 87.1%.
Then `COCCn1c(=O)n(Cc2ccc(F)cc2)c2cccnc21` [CBK283886], with 81%.
For `O=C(NCCCn1ccnc1)c1ncoc1-c1ccccc1` [CBK283887], the viability at 28.5 h, 10 µM was 99%.
In the case of `O=C(NC1CN2CCC1CC2)c1ncoc1-c1ccccc1` (stereo not drawn) [CBK283888], the viability at 28.5 h, 10 µM is 104%.
Then `CCn1c(=O)n(CC(=O)NCc2ccccc2F)c2cccnc21` [CBK283890], with 86.8%; and `CCn1c(=O)n(CC(=O)NCc2cccc(F)c2)c2cccnc21` [CBK283891], with 86.4%; and `O=C(c1cc(F)cc(F)c1)N1CCC(c2cccnc2)CC1` [CBK283892], with 87.5%.
Then `O=C(Cn1c(=O)n(Cc2cccs2)c2ncccc21)N1CCCC1` [CBK283894], with 83.6%; and `CCn1c(=O)n(CC(=O)N2CCC(C)CC2)c2cccnc21` [CBK283895], with 95.9%.
Take `CCn1c(=O)n(CC(=O)N2CCCCC2C)c2cccnc21` (stereo not drawn) [CBK283896]: the viability at 28.5 h, 10 µM is 103%.
Then `CCn1c(=O)n(CC(=O)Nc2ccccc2F)c2cccnc21` [CBK283897], with 102%; and `O=C(Cn1c(=O)n(Cc2cccs2)c2ncccc21)NC1CC1` [CBK283898], with 90.6%; and `O=C(Cn1c(=O)n(Cc2cccs2)c2ncccc21)NCC1CC1` [CBK283899], with 89.3%.
Turning to `CC(C)NC(=O)Cn1c(=O)n(Cc2cccs2)c2ncccc21` [CBK283900], the viability at 28.5 h, 10 µM was 83.6%.
Next, `O=c1n(Cc2cccnc2)c2cccnc2n1Cc1cccs1` [CBK283903]: 89.7%; `CN(C)C(=O)Cn1nc(-c2cc3c(s2)CCCC3)oc1=O` [CBK283905]: 98%.
Take `O=C1NC2(CCN(C(=O)C(F)(F)F)CC2)Oc2ccccc21` [CBK283906]: the viability at 28.5 h, 10 µM was found to be 94%.
Turning to `Cn1c(=O)n(CC(=O)NCc2cccs2)c2cccnc21` [CBK283907], the viability at 28.5 h, 10 µM is 90.3%.
Next, `Cn1c(=O)n(CC(=O)NCc2ccccc2F)c2cccnc21` [CBK283909]: 88.1%; `O=C(C1=Cc2ccccc2OC1)N1CCn2cc(C(F)(F)F)nc2C1` [CBK283913]: 103%; `O=C(c1ccc(CO)o1)N1CCn2cc(C(F)(F)F)nc2C1` [CBK283914]: 94%.
Take `O=C(c1[nH]nc2c1CCCC2)N1CCn2cc(C(F)(F)F)nc2C1` [CBK283915]: the viability at 28.5 h, 10 µM came to 96.7%.
On to `CCn1cc(C(=O)N2CCn3cc(C(F)(F)F)nc3C2)c(C)n1` [CBK283916], for which the viability at 28.5 h, 10 µM amounted to 93.8%.
Turning to `O=C(NCCCn1ccnc1)c1ncoc1-c1ccccc1F` [CBK283917], the viability at 28.5 h, 10 µM came to 96%.
For the compound `Cc1ccc(C2=CCN(CC(=O)N3CCc4ccccc43)CC2)o1` [CBK283918], the viability at 28.5 h, 10 µM is 88.1%.
Consider `CC1CCCCN1C(=O)CN1C(=O)N2CCN=C2c2ccccc21` (stereo not drawn) [CBK283921], for which the viability at 28.5 h, 10 µM is 102%.
Turning to `C#CCNC(=O)C1CCN(c2nc3ccccc3n2CC)CC1` [CBK283923], the viability at 28.5 h, 10 µM is 89.4%.
Take `C=CCn1c(N2CCC(C(=O)NC3CC3)CC2)nc2ccccc21` [CBK283924]: the viability at 28.5 h, 10 µM came out at 86.4%.
Next, `C#CCNC(=O)C1CCN(c2nc3ccccc3n2CC=C)CC1` [CBK283925]: 95.4%; `O=C(N1CCn2cnnc2C1)C1(c2ccccc2)CCCC1` [CBK283926]: 90.8%.
`Cc1cc(C)c2c(c1)cc(C)c1nn(CC(=O)N(C)C)c(=O)n12` [CBK283927]: the viability at 28.5 h, 10 µM came to 96.9%.
Then `O=C(NC1CCCc2c1cnn2-c1ccc(F)cc1)c1ccncc1` (stereo not drawn) [CBK283929], with 91.6%; and `CCc1cccc2c(CN3CCc4nc(C)[nH]c(=O)c4C3)c[nH]c12` [CBK283931], with 94.6%; and `O=C(C1CC1)N1CCCC1c1nc(-c2ccc(F)cc2)n[nH]1` (stereo not drawn) [CBK283934], with 102%.
With `O=C(CN1CCCCC1)N1CCCC1c1nc2ccccc2[nH]1` (stereo not drawn) [CBK283935], the viability at 28.5 h, 10 µM is 104%.
Consider `O=C(c1ccccc1F)N1CCC(n2cnc3cccnc32)CC1` [CBK283937], for which the viability at 28.5 h, 10 µM turned out to be 87.5%.

Source of the values: publication PMC12040169 (PLOS Biology, 2025).
